{"source": "patent US12121518B2", "about": "“PARP-1 and methods of use thereof” (The Board of Supervisors of Louisiana State University and …, priority 2017, dated 2024)", "key": {"[1]": {"test_system": "steroid-resistant leukemia cells", "test": "Steroid-resistant leukemia cells: cell killing and NOTCH levels", "type": "cell-based", "details": "4 nM"}, "VCAM-1 and COX2": {"test_system": "VCAM-1 and COX2", "test": "TNF-α-induced VCAM-1 and COX2 expression in colon epithelial cells (immunoblot)", "type": "cell-based, mouse", "details": "TNF-α-treated colon epithelial cells, 5 μM", "procedure": "Referring to FIG. 1, for example, colon epithelial cells were treated with TNF-α for the indicated time intervals in the presence or absence 5 μM of the PARP inhibitor AZD2281.\nCell isolation, culture, treatments, RNA extraction, cDNA synthesis and quantitative PCR—Primary CEC were isolated essentially as described (29). The mouse colon adenocarcinoma (MC-38 or CT-26), Jurkat T, RAW264.7, or 3LL lung carcinoma cell lines were purchased from Kerafast (Boston, MA) or ATCC (Manassas, VA). Mouse embryonic fibroblasts were derived from WT, PARP-1^+/−, or PARP mice using standard protocols. CEC were serum-starved overnight in 0.5% FBS prior to treatment. […] Quantitative determination of gene expression levels using a 2-step cycling protocol was conducted on a MyIQ Cycler (Bio-Rad, Hercules, CA, USA). Relative expression levels were calculated using the 2[-Delta Delta C(T)] method. Quantities of all targets were normalized to the mouse β-actin gene.\nCell fractionation, protein extraction and immunoblot analysis—Tumor tissues or cells were harvested and homogenized in RIPA lysis buffer (Santa Cruz Biotechnology) containing a cocktail of protease and phosphatase inhibitors on ice. […] Protein expression signals developed by ECL (Pierce, ThermoFisher Scientific) were determined by a G:Box Gel Image Analysis System (Syngene, Cambridge, UK) equipped with the GeneSys image capture software."}, "[2]": {"test_system": "AOM/DSS-induced colon tumorigenesis", "test": "AOM/DSS chronic inflammation-driven colon cancer mouse model", "type": "in vivo", "details": "AOM/DSS-treated WT mice; for colon tumor burden: vs vehicle", "procedure": "The drug was administered twice weekly for the duration of the protocol. […] As stated above, the AOM/DSS colon cancer model is driven primarily by chronic inflammation; thus, we next assessed mice sera for inflammatory factors TNF-α, IL-6, and MCP-1, which are highly relevant to human colon carcinogenesis.\nTumor models, assessment of tumor burden and adoptive transfer—For the azoxymethane/Dextran Sulfate Sodium (AOM/DSS)-induced tumorigenesis model, six to eight weeks old WT, PARP-1^+/− or PARP-1^−/− mice received a single dose (10 mg/kg) of AOM, i.p., followed by 4 cycles of 1.25% DSS provided in drinking water. Each cycle consisted of a week of DSS water separated by 2 weeks of regular water. […] At week 22 after the start of the experimental protocol, mice were sacrificed by CO2 asphyxiation. Colons, spleens, and blood were collected for analysis. Colons were opened longitudinally and washed with PBS to assess the tumor burdens using a dissecting microscope. For the APC^Min-mediated model, APC^Min/+, APC^Min/+PARP-1^+/−, or APC^Min/+PARP-1^−/− male mice were sacrificed at 16 weeks of age. […] Sacrificed mice were processed as described above except that the tumor burden was assessed along the whole intestinal track. Tumors were counted and divided in groups lower than 2 mm, 2-4 mm, and tumors bigger than 4 mm in diameter.\nTissue processing, immunohistochemistry, immunofluorescence and cytokines measurement—Some tissues were fixed in buffered formalin (10%), paraffin-embedded, then sectioned. Serial sections were subjected to H&E staining, immunohistochemistry (IHC) or immunofluorescence, as described (33), with antibodies to PCNA (Novusbio, Littleton, CO), COX-2 (Santa Cruz Biotechnology, Santa Cruz, CA), ICAM-1 (Santa Cruz Biotechnology), CD8 (Santa Cruz Biotechnology), or Gr1 (eBioscience, San Diego, USA) as previously described (34). […] Cytokine levels were assessed for TNF-α (ELM-TNFα-1), IL-6 (ELM-IL-6-1), and MCP-1 (ELM-MCP1) by ELISA (all from RayBiotech, Norcross, GA) according to the manufacturer's instructions and recommendations."}}}
{"smiles": "O=C(c1cc(Cc2n[nH]c(=O)c3ccccc23)ccc1F)N1CCN(C(=O)C2CC2)CC1", "note": "[olaparib]", "values": [{"measurement": "sensitivity of the cells to dexamethasone", "setting": "[1]", "result": "completely reversed sensitivity of the cells to dexamethasone"}, {"measurement": "expression of inflammatory markers (VCAM-1 and COX2)", "setting": "VCAM-1 and COX2", "result": "inhibits the expression of inflammatory markers"}, {"measurement": "colon tumor burden", "setting": "[2]; 5 mg/kg i.p. twice weekly", "result": "significantly reduced the tumor burden"}, {"measurement": "colon tumor burden", "setting": "[2]; 25 mg/kg i.p. twice weekly", "result": "significantly reduced the tumor burden"}, {"measurement": "colitis (colonic mucosa, H&E)", "setting": "[2]; 5 or 25 mg/kg", "result": "notable protection"}]}
